A word on the IC50: it is the concentration needed to halve the response being measured.

The subject of assay [1] is HCT116-WT cells. Briefly: Cell proliferation inhibition, HCT116 wild-type (Cell Titer Glo, 5 days). Type of assay: cell-based. The settings on record: Homo sapiens, HCT-116, 120 h, 5 days treatment, maximum inhibition rate <50% expressed as IC50 > maximum initial concentration, read-out: HCT116 MTAP+/+ cell proliferation inhibitory activity IC50:
On the procedure: (§1) The specific operation procedures were as follows. Tumor cells were treated with test compounds for 5 days, and the effect of the test compounds on the proliferation of tumor cells was evaluated. HCT116-MTAP^−/− and wild-type control HCT116-WT (colorectal cancer cells) cells were seeded in a 384-well plate at a density of 600 cells/well, and at the same time, different concentrations of the test compounds (starting from 20 μM, 10 concentration gradients) were added. The cells were incubated at 37° C., 5% CO2, and saturated humidity for 5 days.
(§2) Cell proliferation was detected using an ATP-based Cell Proliferation Assay Kit (Cell Titer Glo, Promega Corporation). Cells were equilibrated at room temperature for 30 minutes and then treated with Cell Titer Glo reagent. The plate was then covered with aluminum foil and shaken for 15 minutes to allow mixing well and lysis. Chemiluminescence detection was performed using a multifunctional microplate reader (Envision 2105, PerkinElmer). A blank well (blank, cell-free) and a DMSO control well were set.
(§3) The inhibition rate (IR) of the test compounds was calculated using the following formula: […]
(§4) GraphPad Prism was used for graphing, data analysis and IC50 calculations.
On the technique in general: In ATP-based viability assays light output follows the ATP content of the culture.

The subject of assay [2] is HCT116-MTAP−/− cells. Briefly: Cell proliferation inhibition, HCT116 MTAP-/- (Cell Titer Glo, 5 days). The settings on record: Homo sapiens, HCT-116, 120 h, 5 days treatment, read-out: HCT116 MTAP−/− cell proliferation inhibitory activity IC50:
The assay is classed as cell-based. Here is the method: as §1, §2, §3, §4

Assay [3] addresses T1, MAT2A (Homo sapiens, UniProt P31153).
T1 construct: purchased BPS Bioscience
Put plainly: MAT2A enzymatic assay (MAT2A Inhibitor Enzymatic Screening Kit). Type of assay: biochemical. The settings on record: MAT2A enzyme, colorimetric detection at 630 nm; read-out: Inhibitory activity against Enzyme (IC50: nM). On the procedure: The inhibitory effect of the test compounds on the enzymatic activity of MAT2A was determined using MAT2A Inhibitor Enzymatic Screening Kit (BPS Bioscience).
1) Test compounds were dissolved in DMSO and mixed well until the test compounds were completely dissolved. All compounds were diluted with DMSO to a starting concentration of 2 mM, and diluted at a 3-fold ratio to a total of 10 concentration gradients. Duplicate wells were set. The compounds were added to the reaction system at a ratio of 1:100 (20 μM of the maximum final concentration) during detection. 100× positive control (1 mM AGI-24512) and 100× negative control (100% DMSO) were prepared.
2) 200 nL of each of the diluted compounds were transferred to each well of the reaction plate (Corning 3702) using an Echo 550 pipetting system, and the reaction plate was sealed with a sealing film, and centrifuged at 1000 g for 1 minute. The final concentration of DMSO was 1%.
3) Preparation of 1×MAT2A enzyme reaction buffer: 1× volume of 5×MAT2A enzyme reaction buffer was mixed well with 4× volumes of water.
4) 2×MAT2A enzyme solution was prepared with 1×MAT2A enzyme reaction buffer.
5) A 10 μL of 2×MAT2A enzyme solution was added to each well of the 384-reaction plate (Corning 3702), and the plate was sealed with a sealing film.
6) The plate was centrifuged at 1000 g for 60 seconds and incubated at room temperature for 30 minutes.
7) A mixture of 2×L-Methionine and ATP was prepared with 1×MAT2A enzyme reaction buffer.
8) 10 μL of the mixture of 2×L-Methionine and ATP was added to each well of the 384-reaction plate (Corning 3702), and the plate was sealed with a sealing film. The total reaction system was 20 μL.
9) The plate was centrifuged at 1000 g for 60 seconds and incubated at room temperature for 60 minutes.
10) The assay buffer Colorimetric Detection Rebgent was prepared.
11) 20 μL of the assay buffer was added to each well. The plate was centrifuged at 1000 g for 30 seconds and reacted at room temperature for 15 minutes.
12) Fluorescence signal at 630 nm was detected by a multifunctional microplate reader (PerkinElmer, Nivo).

pIC50: −log10 of the molar value. A value given as a limit tells only on which side of the number the result lay.

T1 sequence (P31153 whole entry): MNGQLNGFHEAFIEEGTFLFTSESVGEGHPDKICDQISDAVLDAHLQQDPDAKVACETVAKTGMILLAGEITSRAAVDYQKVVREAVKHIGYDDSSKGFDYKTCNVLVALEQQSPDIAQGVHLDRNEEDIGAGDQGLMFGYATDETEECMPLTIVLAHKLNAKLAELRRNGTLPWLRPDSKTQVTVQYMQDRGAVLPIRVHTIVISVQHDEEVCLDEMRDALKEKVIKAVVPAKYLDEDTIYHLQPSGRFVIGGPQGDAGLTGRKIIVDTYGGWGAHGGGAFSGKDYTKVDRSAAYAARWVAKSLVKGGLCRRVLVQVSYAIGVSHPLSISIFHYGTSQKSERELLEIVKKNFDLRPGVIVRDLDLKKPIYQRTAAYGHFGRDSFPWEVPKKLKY

Regarding `Cc1ncccc1-n1c(=O)nc2c3c(cc(Cl)cc31)CN2C` [Compound A2, 7-chloro-4-methyl-1-(2-methylpyridin-3-yl)-4,5-dihydropyrrolo[2,3,4-de]quinazolin-2(1H)-one], the figures for the pIC50 in assay [1] and in assay [2] were under 4.70 and 7.35, respectively. Further, the IC50 in assay [3] is at most 50 nM.
In the case of `CN1Cc2cc(C(F)(F)F)nc3c2c1nc(=O)n3-c1cccnc1Cl` [Compound A29], in assay [3], the IC50 is over 100 nM.
Still for that read-out and setting: the same measure for `Cc1ncccc1-n1c(=O)nc2c3c(cc(C(F)(F)F)nc31)CCN2C` [Compound C1, 4-methyl-1-(2-methylpyridin-3-yl)-8-(trifluoromethyl)-5,6-dihydro-1H-pyrimidino[4,5,6-ij][2,7]naphthyridin-2(4H)-one]: at most 50 nM.
The same measure, in the same setting: next, `COc1ncccc1-n1c(=O)nc2c3c(cc(Cl)cc31)CN2C` [Compound A40, 7-chloro-1-(2-methoxypyridin-3-yl)-4-methyl-4,5-dihydropyrrolo[2,3,4-de]quinazolin-2(1H)-one]: 50 to 100 nM.
For the compound `Cc1ncccc1-n1c(=O)nc2c3c(cc(Cl)cc31)CN2c1ccccc1` [Compound A3, 7-chloro-4-phenyl-1-(2-methylpyridin-3-yl)-4,5-dihydropyrrolo[2,3,4-de]quinazolin-2(1H)-one], the IC50 in assay [3] is at most 50 nM.
On to `CN1Cc2cc(Cl)cc3c2c1nc(=O)n3-c1cccnc1Cl` [Compound A16, 7-chloro-4-methyl-1-(2-chloropyridin-3-yl)-4,5-dihydropyrrolo[2,3,4-de]quinazolin-2(1H)-one], for which the pIC50 in assay [1] was under 4.70; in assay [2], 6.95. Moreover, the IC50 in assay [3] is at most 50 nM.
As to `Cc1ncccc1-n1c(=O)nc2c3c(cc(Cl)cc31)CN2c1ccc2nn(C)cc2c1` [Compound A38, 7-chloro-4-(2-methyl-2H-indazol-5-yl)-1-(2-methylpyridin-3-yl)-4,5-dihydropyrrolo[2,3,4-de]quinazolin-2(1H)-one], the pIC50 was under 4.70 in assay [1] and 7.70 in assay [2]. Besides, in assay [3], the IC50 is at most 50 nM.
Turning to `Cc1ncccc1-n1c(=O)nc2c3c(cc(Cl)cc31)CCCN2` [Compound B1, 9-chloro-1-(2-methylpyridin-3-yl)-4,5,6,7-tetrahydroazepino[2,3,4-de]quinazolin-2(1H)-one], the concentration for half-maximal inhibition (IC50) in assay [3] is over 100 nM.
With `Cc1ncccc1-n1c(=O)nc2c3c(cc(Cl)cc31)CN2` [Compound A1, 7-chloro-1-(2-methylpyridin-3-yl)-4,5-dihydropyrrolo[2,3,4-de]quinazolin-2(1H)-one], the pIC50 in assay [1] was under 4.70; in assay [2] it was 6.70. The IC50 in assay [3] is at most 50 nM.
The matching figures for `Cc1ncccc1-n1c(=O)nc2c3c(cc(Cl)cc31)CN2c1ccc(Cl)cc1` [Compound A39, 7-chloro-4-(4-chlorophenyl)-1-(2-methylpyridin-3-yl)-4,5-dihydropyrrolo[2,3,4-de]quinazolin-2(1H)-one]: 5.87, 6.51 and at most 50 nM.
As for `CN1Cc2cc(Cl)cc3c2c1nc(=O)n3-c1cccnc1Cl` (single isomer, unassigned) [Compound A16-P2, 7-chloro-4-methyl-1-(2-chloropyridin-3-yl)-4,5-dihydropyrrolo[2,3,4-de]quinazolin-2(1H)-one], the IC50 in assay [3] is at most 50 nM.
The same measure, in the same setting: the same measure for `Cc1ncccc1-n1c(=O)nc2c3c(cc(C(F)(F)F)nc31)CN2C` [Compound A19]: over 100 nM; for `Cc1ncccc1-n1c(=O)nc2c3c(cc(Cl)cc31)OCCN2` [Compound B2, 9-chloro-1-(2-methylpyridin-3-yl)-5,6-dihydro-1H-[1,4]oxazepino[5,6,7-de]quinazolin-2(4H)-one]: over 100 nM.
Turning to `Cc1ncccc1-n1c(=O)nc2c3c(cc(Cl)cc31)NCC(O)N2C` (stereo not drawn) [Compound B3, 9-chloro-5-hydroxy-4-methyl-1-(2-methylpyridin-3-yl)-4,5,6,7-tetrahydro-[1,4]diazepino[5,6,7-de]quinazolin-2(1H)-one], the IC50 in assay [3] is 50 to 100 nM.

Values taken from patent publication US20250388591A1 (CSPC ZHONGQI PHARMACEUTICAL TECHNOLOGY (SHIJIAZHUANG) CO., …, priority 2022, published 2025).
